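Each compound was tested at five concentrations against cells in 96-well plates for 48 hours. Definition used: TGI = concentration required for complete inhibition of growth.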
Key:
Experiment in all cases: inhibition of tumour cell growth, NCI panel, 48 h
[1] = system: EKVX NSCLC
[2] = system: HCT-15 colon
[3] = system: HL-60(TB) leukemia
[4] = system: KM12 colon
[5] = system: MCF7 breast
[6] = system: MDA-MB-435
[7] = system: MDA-N
[8] = system: NCI-H226 lung
[9] = system: NCI-H23 lung
[10] = system: NCI/ADR-RES ovarian
[11] = system: OVCAR-3 ovarian
[12] = system: OVCAR-4 ovarian
[13] = system: OVCAR-8 ovarian
[14] = system: RXF 393 renal
[15] = system: TK-10 renal
[16] = system: HT29 colon

Row | SMILES | TGI [1] [µM] | TGI [2] [µM] | TGI [3] [µM] | TGI [4] [µM] | TGI [5] [µM] | TGI [6] [µM] | TGI [7] [µM] | TGI [8] [µM] | TGI [9] [µM] | TGI [10] [µM] | TGI [11] [µM] | TGI [12] [µM] | TGI [13] [µM] | TGI [14] [µM] | TGI [15] [µM] | TGI [16] [µM]
1 | CC12CCC([C@H](C(O)C3CCCCC3)C1=O)C2(C)C (some centres not stated) | > 100 | > 100 | 42.4 | > 100 | > 100 | > 100 | > 100 | > 100 | > 100 | > 100 | > 100 | > 100 | > 100 | > 100 | > 100 | –
2 | COc1cc(/C=C2\N=C(c3ccccc3)N(c3nc4c(OC)ccc(OC)c4s3)C2=O)ccc1O | > 100 | > 100 | > 100 | > 100 | 33.2 | 50.7 | 62 | – | > 100 | > 100 | > 100 | – | > 100 | > 100 | > 100 | > 100
3 | Cc1ccc(C)c(COCCOCn2ccc(N)nc2=O)c1 | > 100 | > 100 | > 100 | > 100 | > 100 | > 100 | > 100 | > 100 | > 100 | > 100 | > 100 | – | > 100 | > 100 | > 100 | –
4 | CC(=O)OC1(C)C=CC(=O)C=C1 | > 100 | > 100 | > 100 | > 100 | > 100 | > 100 | > 100 | 73 | 75.2 | 26.3 | > 100 | > 100 | > 100 | – | 49.8 | > 100
5 | NNc1nncc2n[nH]nc12 | > 100 | > 100 | > 100 | > 100 | > 100 | > 100 | > 100 | > 100 | > 100 | > 100 | > 100 | – | > 100 | > 100 | > 100 | > 100
6 | O=C(Cc1ccccc1)N/N=C/c1ccccc1O | > 100 | > 100 | > 100 | > 100 | > 100 | > 100 | > 100 | 81.5 | > 100 | > 100 | > 100 | > 100 | > 100 | – | > 100 | > 100
7 | CC(=O)N[C@@H](Cc1ccc(O)cn1)C(=O)NCc1cccc(Cl)c1 | > 100 | > 100 | > 100 | > 100 | > 100 | > 100 | > 100 | > 100 | > 100 | > 100 | > 100 | > 100 | – | > 100 | > 100 | > 100
8 | Cc1ccccc1N=Nc1ccc(N/N=C2/CCCNC2=O)c(C)c1 | > 100 | > 100 | > 100 | > 100 | > 100 | > 100 | > 100 | > 100 | > 100 | > 100 | – | > 100 | – | > 100 | > 100 | > 100

Source: PubChem BioAssay (NCI)
